# Activity calls are given as the source filed them. How the calls were made is not given here.
# Target: Induced myeloid leukemia cell differentiation protein Mcl-1 (Homo sapiens) (UniProt Q07820)
# Assay: blockers of Bid binding to Mcl-1 – biochemical, TR-FRET, dose response (AID 1418)
# Conditions: Mcl-1/Bid peptide binding, TR-FRET (europium/Dy647), 2 hr
# Chain of Induced myeloid leukemia cell differentiation protein Mcl-1 (Homo sapiens) (Q07820 whole entry, looked up): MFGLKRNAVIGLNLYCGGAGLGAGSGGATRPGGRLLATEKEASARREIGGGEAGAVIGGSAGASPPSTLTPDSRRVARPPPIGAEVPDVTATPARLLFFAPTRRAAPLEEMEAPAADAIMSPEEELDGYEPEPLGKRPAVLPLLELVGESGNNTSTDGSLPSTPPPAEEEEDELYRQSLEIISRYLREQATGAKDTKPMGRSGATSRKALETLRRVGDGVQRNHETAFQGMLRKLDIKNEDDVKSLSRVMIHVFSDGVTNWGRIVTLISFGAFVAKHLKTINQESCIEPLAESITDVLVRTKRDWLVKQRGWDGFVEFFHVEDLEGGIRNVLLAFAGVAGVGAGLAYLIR
row,Structure (SMILES),IC50
1,O=C(Oc1ccc(Nc2ncnc3ccccc23)cc1)c1cccnc1,> 54 µM (inactive)
2,O=C(N=Nc1c(O)[nH]c2ccc(Cl)cc12)c1cc(-c2cccs2)nc2ccccc12,0.57 µM
3,Cc1ccc(N2CCN(C3=NC(=O)/C(=C\c4cccs4)S3)CC2)cc1,> 54 µM (inactive)
4,O=C(Nc1cccc(Cl)c1)c1cc(N=Nc2ccc([N+](=O)[O-])cc2Cl)ccc1O,4.18 µM
5,CC1CCC(C(C)C)C(OC(=O)C[n+]2cc(-c3ccc(Cl)cc3)n3c2CCC3)C1 (configuration not stated),> 54 µM (inactive)
6,COc1cc(Cl)c(C)cc1NC(=O)CCCn1c(=O)oc2ccccc21,> 54 µM (inactive)
7,CCCCCSc1nnc2c(n1)OC(c1cccn1C)N(C(C)=O)c1ccccc1-2 (configuration not stated),> 54 µM (inactive)
8,O=C1NN(c2ccc(Cl)c(Cl)c2)C(=O)/C1=C/c1cccc(OC(=O)c2cccs2)c1,6.57 µM
9,NC(=S)n1[nH]c(-c2ccc([N+](=O)[O-])cc2)c(N=Nc2ccc(Cl)cc2)c1=O,0.56 µM
10,Cc1ccccc1OCCNC(=O)CNC(=O)c1ccccc1O,> 54 µM (inactive)
11,CCOC(=O)c1cccc(NC(=O)CCNS(=O)(=O)c2ccc3c(c2)CCN3C(=O)CC)c1,> 54 µM (inactive)
12,N=C1/C(=C/c2ccc(-c3cccc(C(=O)O)c3)o2)C(=O)N=C2SC=C(c3ccccc3)N12,1.02 µM
13,CSC1=N/C(=C\c2ccccc2F)C(=O)S1,> 54 µM (inactive)
14,COc1ccc2[nH]c(=O)c(CNC3CCCCC3)cc2c1,> 54 µM (inactive)
15,C[C@@H](C(=O)Nc1nc2ccc(F)cc2s1)N1C(=O)C2CC=CCC2C1=O (some centres not stated),> 54 µM (inactive)
16,O=C(CN(C(=O)CNC(=O)c1ccco1)c1ccc2c(c1)OCO2)NC1CCCCC1,> 54 µM (inactive)
17,COc1ccc(C2Nc3ccccc3C(=O)N2O)cc1OC (configuration not stated),> 54 µM (inactive)
18,CCOC(=O)c1ccc(NS(=O)(=O)N2CCCCCC2)cc1,> 54 µM (inactive)
19,COC(=O)c1cc2sc(Cl)cc2n1CC(=O)Nc1cccc(SC)c1,> 54 µM (inactive)
20,C/C(=N\NC(=O)c1cc(-c2cccc([N+](=O)[O-])c2)n[nH]1)c1ccccc1O,29 µM
21,C/C(=N\Nc1cccc(C(=O)O)c1)c1ccc2c(c1)Nc1ccccc1S2,0.76 µM
22,CCOc1ccc(-c2ccc(/C=C3/C(=N)N4C(C)=CSC4=NC3=O)o2)c([N+](=O)[O-])c1,0.83 µM
23,CN(C(=O)c1ccc(C#N)cc1)c1nnc(-c2cnccn2)s1,> 54 µM (inactive)
24,Clc1ccc2nc(CN3CCCc4ccccc43)cn2c1,> 54 µM (inactive)
25,O=C1N=C2N(CCN3CCCCC3)c3ccccc3N2/C1=C\c1ccc([N+](=O)[O-])o1,> 54 µM (inactive)

row,Structure (SMILES),IC50
1,COc1cc(C(=O)Nc2ccc3c(c2)C(=O)c2ccccc2C3=O)cc(OC)c1OC,9.01 µM
2,COc1ccc(CN2CCN(c3ccccc3F)CC2)cc1O,> 54 µM (inactive)
3,COc1ccc(OC)c(-n2c(N)c(C(=O)NCC3CCCO3)c3nc4ccccc4nc32)c1 (configuration not stated),> 54 µM (inactive)
4,CCCN1CCC(NC(=S)Nc2ccc(C(=O)OCC)cc2)CC1,> 54 µM (inactive)
5,O=C(/C=C\Nc1ccc(S(=O)(=O)Nc2ncccn2)cc1)c1cccc2ccccc12,> 54 µM (inactive)
6,Cc1c(NC(=S)NC(NC(=O)C(C)C)C(Cl)(Cl)Cl)c(=O)n(-c2ccccc2)n1C (configuration not stated),> 54 µM (inactive)
7,CC1CCN(S(=O)(=O)c2cccc(C(=O)Nc3ccccn3)c2)CC1,> 54 µM (inactive)
8,O=C(CSc1nnc(SCc2cccc3ccccc23)s1)N=Nc1c(O)[nH]c2ccccc12,3.51 µM
9,COC(=O)C(CC(C)C)NC(=O)c1ccc(F)cc1 (configuration not stated),> 54 µM (inactive)
10,O=C(N[C@@H](Cc1ccccc1)C(=O)O)c1ccncc1,> 54 µM (inactive)
11,CN(C)CCCCOc1ccccc1-c1ccccc1,> 54 µM (inactive)
12,O=C(N/N=C/c1ccc([N+](=O)[O-])o1)c1cc2c(ccc3ccccc32)o1,1.71 µM
13,COc1ccc(CN2C(=O)c3cccnc3C2Nc2ccc(OC)c(Cl)c2)cc1 (configuration not stated),0.74 µM
14,CCc1cc(=O)oc2cc3occ(-c4ccc(OC)c(F)c4)c3cc12,> 54 µM (inactive)
15,O=C1C(=Cc2cccn2-c2ccccc2)C(=O)c2ccccc21,2.58 µM
16,COc1cc(OC)cc(C(=O)N(CCCN2C(=O)c3cccc4cccc(c34)C2=O)c2cccc(OC)c2)c1,> 54 µM (inactive)
17,O=c1[nH]c(O)c(/C=C2/C=CC(c3cc(Cl)ccc3Cl)=N2)c(=O)[nH]1,1.07 µM
18,O=C(CN1C(=O)c2ccccc2C1=O)N1CCCCC1,> 54 µM (inactive)
19,COc1ccc(NS(=O)(=O)c2cccc(NC(=O)CCC(=O)c3ccc(Cl)cc3)c2)cc1,> 54 µM (inactive)
20,C#Cc1ccc([C@@H]2C=C(C(=O)N3CCN(Cc4ccc5c(c4)OCO5)CC3)O[C@H](OCCCCO)C2)cc1,> 54 µM (inactive)
21,C=CCc1cccc2cc(C(=O)Nc3ccc(S(=O)(=O)Nc4nnc(CC)s4)cc3)c(=O)oc12,> 54 µM (inactive)
22,COc1cc(/C=N/Nc2nnc3c(n2)[nH]c2ccccc23)ccc1O,2.66 µM
23,CSc1nc(N(CCO)CCO)c2sc3nc(-c4ccco4)c4c(c3c2n1)CCC4,> 54 µM (inactive)
24,Cc1cc(NS(=O)(=O)c2ccc(NC(NC(=O)C(C(F)(F)F)C(F)(F)F)(C(F)(F)F)C(F)(F)F)cc2)no1,1.62 µM
25,CCOC(=O)c1cc2occc2n1CC(=O)NC1CCCCC1C (configuration not stated),> 54 µM (inactive)

row,Structure (SMILES),IC50
1,O=C(COc1ccc(S(=O)(=O)N2CCCC2)cc1Cl)NC1CC1,> 54 µM (inactive)
2,Cc1cc2nc(-c3ccc(NC(=O)C(C)C)cc3)oc2cc1C,3.02 µM
3,O=C(Nc1ccc(Nc2ccncc2)cc1)c1ccc(Nc2ccnc3ccc([N+](=O)[O-])cc23)cc1[N+](=O)[O-],1.38 µM
4,N#Cc1cc(-c2ccccc2)nc(Oc2ccccc2)n1,> 54 µM (inactive)
5,CCOc1ccc(-c2ccc(/C=C3/C(=N)N4C=CSC4=NC3=O)o2)c([N+](=O)[O-])c1,0.86 µM
6,COc1cc(/C=C2\SC(=O)N(Cc3ccc(Cl)cc3)C2=O)cc([N+](=O)[O-])c1O,16.9 µM
7,Cc1ccc(C)c(NC(=O)C2CCCN2/C=C/C(=O)C(F)(F)F)c1 (configuration not stated),> 54 µM (inactive)
8,O=C(Cc1c(Cl)cccc1Cl)OCC(=O)N1CCc2ccccc2C1,> 54 µM (inactive)
9,COc1ccc(CCNC(=O)c2ccc(=O)[nH]n2)cc1OC,> 54 µM (inactive)
10,CN1C(=O)C(=Cc2sc(=O)n(-c3ccccc3)c2N2CCCCC2)C(=O)N(C)C1=O,> 54 µM (inactive)
11,Cc1nc2c(-c3ccc(Cl)cc3)cnn2c2c1CCC2,> 54 µM (inactive)
12,COc1cc(NS(=O)(=O)c2ccc(NC(=S)NC(=O)c3sc4ccccc4c3Cl)cc2)nc(OC)n1,> 54 µM (inactive)
13,Cc1ccc(-c2cn(-c3ccccc3)c(SCC(N)=O)n2)cc1C,> 54 µM (inactive)
14,O=[N+]([O-])c1cc(Cl)cc(/C=N/NC(=S)Nc2ccc(S(=O)(=O)N3CCOCC3)cc2)c1O,> 54 µM (inactive)
15,c1ccc(CSc2nnc(-c3ccco3)c(-c3ccco3)n2)cc1,10.2 µM
16,COc1cccc(Nc2nc(NCC3CCCO3)c3ccccc3n2)c1 (configuration not stated),> 54 µM (inactive)
17,O=C(CSc1nc(-c2ccccc2)nc2c1Cc1ccccc1O2)Nc1ccc(C(=O)O)cc1,3.03 µM
18,Cc1ccc(-c2ccc(/C=C3/NC(=O)NC3=O)o2)cc1[N+](=O)[O-],inactive
19,Oc1ccc(/C=N/Nc2ccnc3cc(Cl)ccc23)c(O)c1,6.69 µM
20,Cc1ccc(/C=N/NC(=O)c2cc3c(ccc4ccccc43)o2)cc1[N+](=O)[O-],11.1 µM
21,CC(=O)N(/N=C/c1cccc(C)c1)c1nc(-c2ccc(Br)cc2)cs1,> 54 µM (inactive)
22,COc1ccc(NC(=O)Cn2nnc(-c3ccccc3NC(=O)c3ccco3)n2)cc1,6.22 µM
23,Cc1ccc(COc2ccc(C(=O)NN)cc2)cc1,> 54 µM (inactive)
24,COc1cc2nc(N3CCN(C(=O)c4ccco4)CC3)nc(N)c2cc1OC,> 54 µM (inactive)
25,Cc1csc2ncnc(N3CCN(C(=S)Nc4ccc(F)cc4F)CC3)c12,> 54 µM (inactive)

row,Structure (SMILES),IC50
1,CCOC(=O)c1sc2nc3c(SCCC(=O)O)cc(C(=O)c4cc(OC)ccc4O)cn3c(=O)c2c1C,1.66 µM
2,CCOc1cc(N2CCOCC2)c(OCC)cc1NC(=O)CCS(=O)(=O)c1ccc(Cl)cc1,> 54 µM (inactive)
3,CCOc1ccc(NC(=O)c2oc3ccccc3c2NC(=O)CC)cc1,> 54 µM (inactive)
4,O=C(COC(=O)CCNS(=O)(=O)c1ccc2c(c1)OCCO2)NC1CCCc2ccccc21 (configuration not stated),> 54 µM (inactive)
5,Cc1ccc2nc(NC(=O)c3ccc(-c4nc5ccccc5s4)s3)sc2c1,1.12 µM
6,CCc1c(C(=O)Nc2cc(C)ccc2OC)[nH]c(C)c1C(C)=O,> 54 µM (inactive)
7,O=C(CSc1nccc(=O)[nH]1)c1ccccc1Br,> 54 µM (inactive)
8,Cc1ccc(C(=O)NNC(=O)CSc2nnc3c(n2)[nH]c2ccc(F)cc23)cc1,> 54 µM (inactive)
9,NC(=S)Nc1ccc(F)cc1F,> 54 µM (inactive)
10,Cc1ccc(-c2cc(-c3ccc4c(c3)OCO4)c(C#N)c(N)n2)o1,16.4 µM
11,COc1ccc2[nH]c3c4c(ccc3c2c1)C(=O)C=CC4=O,2.51 µM
12,Fc1ccc(NC(=S)N/N=C/c2cccc(Br)c2)c(F)c1,> 54 µM (inactive)
13,COc1ccc(C(=O)/C=C/c2ccc(N3CCCCC3)c([N+](=O)[O-])c2)cc1,> 54 µM (inactive)
14,CC1C(c2ccccc2)N(C)CCC12NC(=O)NC2=O (configuration not stated),> 54 µM (inactive)
15,CCOC(=O)C1CCCN(Cc2ccccc2OCC)C1 (configuration not stated),> 54 µM (inactive)
16,COc1cc2[nH]c(=S)n(N(C(C)=O)C(C)=O)c(=O)c2cc1OC,> 54 µM (inactive)
17,C=CCOC(=O)/C=C/C(=O)NC(N)=O,> 54 µM (inactive)
18,CC(C)N(C(=O)c1sc2cc([N+](=O)[O-])ccc2c1Cl)C(C)C,> 54 µM (inactive)
19,CSc1cccc(NC(=O)CN(C)S(=O)(=O)c2ccccc2)c1,> 54 µM (inactive)
20,Cc1ccc2nc(NC(=O)c3cccc(-c4cc5ccccc5oc4=O)c3)sc2c1,0.99 µM
21,C=CCn1c(SCC(=O)c2[nH]c(C)c(C(=O)OCC)c2C)nc2scc(-c3ccc(OC)c(OC)c3)c2c1=O,0.84 µM
22,S=C(NNc1ccnc2cc(Cl)ccc12)Nc1ccc(Cl)cc1Cl,2.22 µM
